In US10213506B2, “Targeting immunotherapy for amyloidosis” (UNIVERSITY OF TENNESSEE RESEARCH FOUNDATION, priority 2014, dated 2019):

Assays:
AA amyloid = assay: In vivo pre-targeting of 125I-11-1F4 to systemic AA amyloid; details: AA mice, ~400 μg unlabeled peptide, 24 h post injection of 11-1F4
Experimental: (§1) Systemic visceral AA amyloidosis was induced in H2-L^d-huIL-6 Tg Balb/c transgenic mice that constitutively express the human interleukin-6 transgene, by iv injection of 10 μg of purified, splenic AA amyloid (amyloid enhancing factor; AEF) in 100 μL of sterile phosphate-buffered saline (PBS). Peptide p66 pre-targeting of ^125I-11-1F4 was evaluated in mice at 3-4 wk post AEF injection when amyloid load was modest.
(§2) Three cohorts of 3 mice, each received ˜400 μg of unlabeled peptide p66, and a second group of 3 cohorts were given peptide p5+14 as a control. Twenty-four hours after the peptide injection all mice were administered ˜150 μCi (˜20 μg) of ^125I-11-1F4 IV in the lateral tail vein. One group of p66 mice (n=3) and one group of p5+14 control mice (n=3) were euthanized at 24, 48 and 72 h post injection of 11-1F4 mAb and the organs harvested at necropsy for fixation, followed by microautoradiographic and immunohistochemical analyses.
For autoradiography, 6-μm-thick sections were cut from formalin-fixed, paraffin-embedded blocks, containing tissues from mice that had received ^125I-p66. The sections were placed on Plus microscope slides (Fisher Scientific), dipped in NTB-2 emulsion (Eastman Kodak), stored in the dark, and developed after a 4 day exposure. Each section was counterstained with hematoxylin and eosin. […]

liver macrophages = assay: Liver macrophage staining (Iba-1) after in vivo pre-targeting; details: AA mice pre-injected with the peptide, 72 h post injection of 11-1F4 mAb
Experimental: as §1, §2
The presence of macrophages was detected by staining with mAb Iba-1 (1:8000 diln) followed by addition of biotinylated rabbit anti-mouse secondary reagent (Vector Rabbit Elite kit). The slides were developed, as described above. All tissue sections were examined using a Leica DM500 light microscope fitted with cross-polarizing filters (for Congo red). Digital microscopic images were acquired using a cooled CCD camera (SPOT; Diagnostic Instruments).

[1] = system: synthetic and naturally-occurring amyloid samples; assay: 125I-peptide pull-down assay; format: binding
Experimental: To evaluate the binding of p66 and p5+14 to synthetic and naturally-occurring amyloid, peptides p66 or p5+14 were radiolabeled with iodine-125 (I-125, ^125I) using oxidation with chloramine T (1 mg/ml in water freshly made. Free 1-125 was removed from the reaction mixture by size exclusion chromatography using a Sephadex G-25 solid phase and a 0.1% (w/v) gelatin in PBS mobile phase. Fractions of ˜250 μl were collected and the radioactivity in each measured using a gamma counter (Packard Cobra II auto-gamma counter). Peptide fractions with peak radioactivity were pooled and used for the “pull-down” assays.
For the pull down assay, ^125I-labeled peptide binding to murine: (m) AA and wild type (WT) liver homogenates (25 μl); rVλ6Wil (AL), Aβ(1-40) and islet amyloid polypeptide (IAPP) synthetic fibrils (25 μg), and; transthyretin-associated (ATTR), ALκ4-Cab and ALλ1-Ship human amyloid extracts (50 μg). The ^125I-peptides were prepared in PBST (0.15 M NaCl) or PBST with 1 M NaCl. Ten μl (˜5 ng, ˜100,000 counts per min [cpm]) of the ^125I-peptide solution was added to each test sample in a 200 μl volume. The reaction mixtures were rotated for 1 h at RT, then centrifuged twice at 16,000× g for 10 min. After each step the supernatants were removed and collected in test tubes. The pellets, obtained following the second spin were resuspended in PBST. The radioactivity in both the supernatant and pellet samples were measured using a Packard Cobra II auto-gamma counter. The bound peptide, expressed as % total was calculated according to: Bound peptide(% total)=(Pellet cpm)/(Pellet cpm+Supernatant cpm)

human ATTR amyloid = target: T1, human ATTR amyloid (Homo sapiens, UniProt P02766); assay: Pre-targeting immunohistochemistry on ATTR-laden tissue sections; format: binding; details: biotinylated peptide without mAb; compared with Congo red
T1 construct: human ATTR-laden formalin-fixed paraffin embedded tissue sections; from tissue
Experimental: The pre-targeting efficacy of peptide p5+14 in conjunction with mAb clones 4, 5, 12, or 13 was further evaluated using human ATTR-laden formalin-fixed paraffin embedded tissue sections. More particularly, six micrometer-thick sections, cut from formalin-fixed, paraffin embedded human transthyretin (TTR) amyloid-laden tissue, were subjected to antigen retrieval by incubation with CitraPlus (BioGenex, San Ramon, Calif.) for 30 min at 90° C. Peptide p5+14 was added to the tissue at ˜3 μg/mL (30× molar excess over mAb) and incubated overnight at 4° C. Unbound reagent was removed by washing in PBST for 30 min. Tissues (with or without p5+14) were immunostained with a 3 μg/mL solution of biotinylated anti-peptide mAb (clones 4, 5, 12, or 13). Slides were developed by addition of streptavidin-HRP (Vectastain Elite ABC kit, Vector Labs) followed by 3,3′-diaminobezidene (Vector Labs).
By way of positive control, a biotinylated-p5+14 peptide (without mAb) was used to directly stain TTR amyloid in this tissue (red arrows, below), as described above.
To confirm the presence and distribution of amyloid in the tissue a consecutive slide was stained with Congo red. Briefly, tissues were incubated in Congo red solution (0.8% w/v Congo red, 0.2% KOH w/v in 80% ethanol) for 1 h at RT. Sections were then washed in water and counterstained by suspending in Mayer's hematoxylin for 2 min. […]

AA amyloid deposits = assay: In vivo binding of 125I-p66 in mice with systemic AA amyloidosis
Experimental: as §1, with “p66” for “p66 pre-targeting of ^125I-11-1F4”, “4-6” for “3-4”, “significant.” for “modest.”
(§3) Imaging was performed using WT or AA amyloid mice (n=3) that were injected with ˜5 μg of ^125I-p66, 125 μCi in the lateral tail vein. After the appropriate uptake time (data for 4 and 72 h pi shown), mice were euthanized by isoflurane inhalation overdose. SPECT images were acquired using an Inveon trimodality imaging platform (Siemens Preclinical Solution, Knoxville, Tenn.) running Inveon Acquisition Workplace software (ver. 2.0). Low energy (^125I; 25-45 keV) gamma photons were acquired at each of 60, 16-sec projections with 90 mm of bed travel. A 1 mm-diameter, 5-pinhole (Mouse Whole Body) collimator was used at 30 mm from the center of the field of view. Data were reconstructed post hoc onto an 88×88×312 matrix with isotropic 0.50 mm voxels using a 3D ordered subset expectation maximization (OSEM) algorithm (8 iterations; 6 subsets).
CT data were acquired using an x-ray voltage biased to 80 kVp with a […] anode current, with 4×4 binning. A 225 msec exposure was used, and 360, 1-degree projections were collected. The data were reconstructed using an implementation of the Feldkamp filtered back-projection algorithm onto a 512×512×1296 matrix with isotropic 0.106 mm voxels. […]
(§4) Samples of liver, spleen, pancreas, kidneys, small and large intestines, stomach and heart were harvested post mortem from every mouse undergoing imaging with ^125I-p66. A sample of each was placed into a tared, plastic vial, weighed and the ^125I radioactivity measured using an automated Wizard 3 gamma counter (1480 Wallac Gamma Counter, Perkin Elmer). The biodistribution data were expressed as % injected dose/g tissue (% ID/g). […]

[2] = In vivo binding of 125I-p66 in healthy WT mice; details: 125I-labelled peptide iv
Experimental: as §3
as §4, with “ID/g). In addition, samples of each tissue were fixed in 10% buffered-formalin for 24 h and embedded in paraffin for autoradiography.” for “ID/g).”

BSA-blocked wells = BSA-blocked wells (Bos taurus, UniProt P02769); assay: p66 and 11-1F4 on BSA-blocked wells without fibrils; format: binding; details: no fibrils
Chain of BSA-blocked wells (P02769 25-607): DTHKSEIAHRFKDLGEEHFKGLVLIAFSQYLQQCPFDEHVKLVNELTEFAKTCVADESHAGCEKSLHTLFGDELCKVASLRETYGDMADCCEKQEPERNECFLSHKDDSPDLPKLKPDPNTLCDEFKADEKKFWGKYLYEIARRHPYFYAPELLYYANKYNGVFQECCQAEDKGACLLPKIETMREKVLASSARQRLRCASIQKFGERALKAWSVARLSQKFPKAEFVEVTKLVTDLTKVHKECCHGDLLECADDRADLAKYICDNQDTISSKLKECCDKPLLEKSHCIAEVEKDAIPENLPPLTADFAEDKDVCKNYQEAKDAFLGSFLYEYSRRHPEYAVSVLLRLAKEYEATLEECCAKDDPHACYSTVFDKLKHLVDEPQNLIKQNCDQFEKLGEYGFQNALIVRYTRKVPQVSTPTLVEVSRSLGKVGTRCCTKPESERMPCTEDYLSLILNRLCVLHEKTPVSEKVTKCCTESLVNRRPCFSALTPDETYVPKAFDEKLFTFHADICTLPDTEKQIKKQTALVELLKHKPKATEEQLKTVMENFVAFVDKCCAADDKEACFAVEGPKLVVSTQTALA

mAb clones = assay: Capture of biotinylated negative control peptides by adsorbed mAbs; format: binding, murine; details: 100 ng/well
Experimental: More particularly, 96-well ELISA microplates were coated overnight with the indicated mAbs (500 ng/well), the wells were blocked with PBS/BSA solution before addition of biotinylated p5+14 peptide (100 ng/well). Biotinylated peptides, p5R and p31G (aka p5G) were used as a negative control. Following a wash step, detection of captured peptide was achieved by addition of europium-conjugated streptavidin as described above.

Binding of 125I-peptide to amyloid samples (pull-down) ([1]; 0.15 M NaCl) | Binding of 125I-peptide to amyloid samples (pull-down) ([1]; 1.0 M NaCl) | Direct staining of ATTR amyloid by biotinylated peptide (human ATTR amyloid) | Peptide binding to BSA-blocked wells in the absence of fibrils (BSA-blocked wells) | Substance | Peptide associated with AA amyloid in tissues (immunohistochemistry with clone 12-3) (AA amyloid) | Liver macrophage infiltration (Iba-1 staining) (liver macrophages) | Binding to amyloid deposits in vivo (micro-autoradiography vs Congo red) (AA amyloid deposits; 125I-labelled peptide iv, mice with systemic AA amyloidosis) | Reactivity with amyloid in vivo, notably liver, spleen, pancreas and intestines (SPECT/CT imaging and tissue biodistribution) (AA amyloid deposits; 125I-labelled peptide, AA mice) | Time post injection at which liver amyloid could be visualized by SPECT imaging (AA amyloid deposits; 125I-labelled peptide, AA mice) | Binding to healthy tissues in vivo (micro-autoradiography) [2] | Capture of biotinylated peptide by adsorbed mAb clones (mAb clones)
bound equally well | bound equally well | co-localizes with amyloid deposits | – | p5+14: SEQ ID NO: 17: KAQKAQAKQAKQAQKAQKAQAKQAKQAQKAQKAQAKQAKQ (KAQKAQAKQAKQAQKAQKAQAKQAKQAQKAQKAQAKQAKQ; Peptide p5+14) | p5+14-coated AA amyloid in all tissues evaluated | induced macrophage infiltration | – | – | – | – | –
bound equally well | bound equally well | – | no peptide bound | p66: SEQ ID NO: 18: p5+14 fused via linker SVTVVT to 11-1F4 12-mer epitope KHYAAFPENLLI (KAQKAQAKQAKQAQKAQKAQAKQAKQAQKAQKAQAKQAKQSVTVVTKHYAAFPENLLI; Fusion protein between p66 and antibody epitope sequence 11-1F4) | associated specifically with AA amyloid | induced macrophage infiltration into the liver and clustering of macrophages around amyloid deposits to a greater degree | specifically bound the amyloid deposits | confirmed | at least 72 h | did not bind to any tissue | –
– | – | – | – | p5G: SEQ ID NO: 3: GAQGAQAGQAGQAQGAQGAQAGQAGQ (GAQGAQAGQAGQAQGAQGAQAGQAGQ; Peptide p5G) | – | – | – | – | – | – | not captured
– | – | – | – | p5R: SEQ ID NO: 2: RAQRAQARQARQAQRAQRAQARQARQ (RAQRAQARQARQAQRAQRAQARQARQ; Peptide p5R) | – | – | – | – | – | – | not captured
